Source: paper PMC8819291, “Adaptively evolved human oral actinomyces‐sourced defensins show therapeutic potential” (EMBO Molecular Medicine, 2021)
Entries after “also recorded” stand apart in the source; their conditions may differ. Where a SMILES comes first, the peptide text is derived from it. Bridges are numbered along the chain shown (N, C = ends).

Legend:
[1] = SPR binding of UMP to immobilized AMSIN (Biacore T100); settings: read-out: Binding affinity of AMSIN to UMP (K D); AMSIN immobilized on CM5, UMP 100–3.125 μM in PBS-T pH 7.5, 25°C; 1:1 Langmuir model
Procedure: Surface plasmon resonance (SPR) analysis was performed on a Biacore T100 instrument with a CM‐5 sensor chip (GE Healthcare Life Sciences, USA) at 25°C. An amide coupling chemistry strategy was used to immobilize AMSIN on the chip surface. […] Non‐reacted carboxylic groups on the sensor chip surface were blocked by ethanolamine‐HCl (1 M, pH 8.5) for 420 s at a flow rate of 10 μl/min. The final immobilization level was 1,778 RUs. For detecting binding, the analyte UMP was serially diluted twofold with the running buffer PBS‐T (PBS buffer containing 0.05% Tween 20, pH 7.5) at final concentrations of 100–3.125 μM. Then, they were used to flow over the chip surface at a flow rate of 30 μl/min for 60 s. Dissociation was monitored for 120 s by injecting the running buffer suddenly after samples at a flow rate of 30 μl/min for complete removal of specifically and non‐specifically bound biological material from the surface. Responses were measured in RUs as the difference between active and reference channels. The binding curve was fitted with the software BIAevaluation v2.0.1 using 1:1 Langmuir binding model.

MRSA P1374 = assay: Mouse peritonitis model; format: in vivo
Procedure: ICR male mice (30 g each mouse; 6 weeks of age) were infected with 0.5 ml of bacterial suspension (1 × 10^8 CFU per mouse) via intraperitoneal injection (i.p.), a dose that achieved 100% mortality within 24 h after infection. […] Vehicle (0.9%) treated control group included 11 mice. Schematic representation is provided in Appendix Fig S16C.

Kv4.3 = Kv4.3 (Homo sapiens, UniProt Q9UK17); settings: 100 μM AMSIN
Procedure: (§1) For the expression of Nav1.5, Kv1.4, Kv1.5, Kv2.1, Kv4.3, and hERG in Xenopus oocytes, the linearized plasmids were transcribed using the T7 or SP6 mMESSAGE‐mMACHINE transcription kit (Ambion). The harvesting of stage V–VI oocytes from an anesthetized female Xenopus laevis frog was previously described (Zhu et al, [2020]). Oocytes were injected with 50 nl of cRNA at a concentration of 1 ng/nl using a micro‐injector (Drummond Scientific, USA). The oocytes were incubated in a solution containing (in mM): NaCl, 96; KCl, 2; CaCl2, 1.8; MgCl2, 2 and HEPES, 5 (pH 7.4), supplemented with 50 mg/l gentamycin sulfate. Two‐electrode voltage‐clamp recordings were performed at room temperature (18–22°C) using a Geneclamp 500 amplifier (Axon Instruments, USA) controlled by a pClamp data acquisition system (Axon Instruments, USA). Whole‐cell currents from oocytes were recorded 1–4 days after injection. Bath solution composition was (in mM): NaCl, 96; KCl, 2; CaCl2, 1.8; MgCl2, 2 and HEPES, 5 (pH 7.4). Voltage and current electrodes were filled with 3 M KCl. Resistances of both electrodes were kept between 0.7 and 1.5 M Ω. Elicited currents were sampled at 1 kHz and filtered at 0.5 kHz (for potassium currents) or sampled at 20 kHz and filtered at 2 kHz (for sodium currents) using a four‐pole low‐pass Bessel filter. […] Current traces of hERG channels were elicited by applying a +40 mV prepulse for 2 s followed by a step to −120 mV for 2 s.

hERG = hERG (Homo sapiens, UniProt Q12809); settings: 100 μM AMSIN
Procedure: as §1

Kv2.1 = Kv2.1 (Homo sapiens, UniProt Q14721); settings: 100 μM AMSIN
Procedure: as §1

Kv1.4 = Kv1.4 (Homo sapiens, UniProt P22459); settings: 100 μM AMSIN
Procedure: as §1

Nav1.5 = Nav1.5 (Homo sapiens, UniProt Q14524); settings: 100 μM AMSIN
Procedure: as §1

Kv1.5 = Kv1.5 (Homo sapiens, UniProt P22460); settings: 100 μM AMSIN
Procedure: as §1

SP D39 = assay: Mouse lung infection model
Procedure: To this end, ICR female mice (30 g each mouse; 9–10 weeks of age) were anesthetized with 1.25% 2,2,2‐Tribromoethanol (Avertin) (Macklin, Shanghai, China) and hung by their front teeth on a steel wire. Then, they were inoculated intranasally with 10–20 µl bacterial suspension of SP D39 of fresh overnight culture (1.5 × 10^6 CFU per mouse) and then were removed from the wire to their cages. A control group of untreated mice was included. […] Mice were treated with penicillin as a positive control. At 48 h post‐infection, the mice were sacrificed and lungs removed and homogenized in 0.9% saline. Colony counts from lung homogenates were determined and the total number of colonies/lungs per mouse was calculated. Schematic representation is provided in Appendix Fig S16B.

HEK 293 = settings: 25 µM (Appendix Fig S14), 72 h, CCK‐8
Procedure: Cells were cultured at 37°C in 5% CO2: 95% air incubator in Minimum Essential Medium (MEM) supplemented with 10% (v/v) fetal bovine serum (FBS). Cells were seeded at a density of 7 × 10^3 cells per well in 96‐well plates and incubated for 24 h. Media were then replaced with 200 μl of media containing various concentrations of peptides. The cells were incubated for 72 h and cytotoxicity was assessed with CCK‐8 Kits (Dojindo Molecular Technologies, Tokyo, Japan). Absorbance was detected at 450 nm with the TECAN Infinite M200 microplate reader (Tecan, Durham, USA).

Kv1.5, sequence (P22460 whole entry): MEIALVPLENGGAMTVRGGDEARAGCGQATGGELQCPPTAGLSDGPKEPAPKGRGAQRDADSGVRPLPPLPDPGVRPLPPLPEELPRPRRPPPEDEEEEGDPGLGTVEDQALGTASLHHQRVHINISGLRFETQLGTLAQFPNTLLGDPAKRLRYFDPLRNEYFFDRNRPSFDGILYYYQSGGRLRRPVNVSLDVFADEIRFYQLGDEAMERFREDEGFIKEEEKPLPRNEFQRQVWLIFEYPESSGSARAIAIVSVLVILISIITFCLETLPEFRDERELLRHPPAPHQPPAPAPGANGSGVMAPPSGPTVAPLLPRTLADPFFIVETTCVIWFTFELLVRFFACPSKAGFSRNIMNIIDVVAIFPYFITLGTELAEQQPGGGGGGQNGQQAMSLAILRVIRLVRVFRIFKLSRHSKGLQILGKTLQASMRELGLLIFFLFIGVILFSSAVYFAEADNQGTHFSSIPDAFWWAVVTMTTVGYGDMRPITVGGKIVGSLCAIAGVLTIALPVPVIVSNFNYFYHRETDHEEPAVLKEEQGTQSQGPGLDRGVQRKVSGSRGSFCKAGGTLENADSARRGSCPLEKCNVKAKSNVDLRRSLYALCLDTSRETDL
Kv4.3, sequence (Q9UK17 whole entry): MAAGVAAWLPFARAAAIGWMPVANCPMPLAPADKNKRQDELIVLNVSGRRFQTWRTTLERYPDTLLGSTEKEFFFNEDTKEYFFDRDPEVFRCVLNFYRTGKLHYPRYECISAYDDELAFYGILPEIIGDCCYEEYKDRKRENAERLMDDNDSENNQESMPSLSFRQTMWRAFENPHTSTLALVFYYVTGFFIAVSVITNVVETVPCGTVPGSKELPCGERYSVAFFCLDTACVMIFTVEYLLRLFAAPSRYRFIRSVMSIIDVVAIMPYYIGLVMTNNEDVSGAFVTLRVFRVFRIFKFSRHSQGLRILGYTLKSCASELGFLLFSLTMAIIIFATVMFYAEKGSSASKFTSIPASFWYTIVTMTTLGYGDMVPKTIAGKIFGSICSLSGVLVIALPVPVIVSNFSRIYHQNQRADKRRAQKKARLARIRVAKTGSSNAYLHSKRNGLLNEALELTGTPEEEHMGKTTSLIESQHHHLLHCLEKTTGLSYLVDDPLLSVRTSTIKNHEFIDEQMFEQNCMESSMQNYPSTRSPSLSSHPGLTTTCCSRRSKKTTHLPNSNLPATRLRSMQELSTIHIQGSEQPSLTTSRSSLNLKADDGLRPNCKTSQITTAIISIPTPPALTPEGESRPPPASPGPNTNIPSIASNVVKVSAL
Kv2.1, sequence (Q14721 whole entry): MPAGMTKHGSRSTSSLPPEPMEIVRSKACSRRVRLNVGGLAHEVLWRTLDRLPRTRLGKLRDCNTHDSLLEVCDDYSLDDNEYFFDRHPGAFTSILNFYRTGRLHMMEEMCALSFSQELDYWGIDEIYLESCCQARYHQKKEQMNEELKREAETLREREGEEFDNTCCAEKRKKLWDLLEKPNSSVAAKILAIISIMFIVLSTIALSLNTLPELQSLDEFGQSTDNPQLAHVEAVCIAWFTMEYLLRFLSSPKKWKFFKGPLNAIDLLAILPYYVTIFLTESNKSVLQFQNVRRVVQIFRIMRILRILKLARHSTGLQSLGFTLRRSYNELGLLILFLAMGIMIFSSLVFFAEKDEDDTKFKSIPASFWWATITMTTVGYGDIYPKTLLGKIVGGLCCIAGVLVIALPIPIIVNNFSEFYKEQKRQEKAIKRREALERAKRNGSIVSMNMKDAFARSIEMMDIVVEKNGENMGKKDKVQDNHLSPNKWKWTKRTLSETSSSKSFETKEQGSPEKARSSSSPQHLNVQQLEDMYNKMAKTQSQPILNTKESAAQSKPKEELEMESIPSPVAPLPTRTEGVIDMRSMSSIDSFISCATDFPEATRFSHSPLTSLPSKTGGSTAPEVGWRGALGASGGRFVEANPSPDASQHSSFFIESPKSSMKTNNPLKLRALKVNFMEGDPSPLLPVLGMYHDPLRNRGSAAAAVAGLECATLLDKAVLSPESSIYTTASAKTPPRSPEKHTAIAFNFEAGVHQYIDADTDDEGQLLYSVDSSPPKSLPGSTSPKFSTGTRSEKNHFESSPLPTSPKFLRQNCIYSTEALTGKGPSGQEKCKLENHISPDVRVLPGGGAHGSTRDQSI
hERG, sequence (Q12809 whole entry): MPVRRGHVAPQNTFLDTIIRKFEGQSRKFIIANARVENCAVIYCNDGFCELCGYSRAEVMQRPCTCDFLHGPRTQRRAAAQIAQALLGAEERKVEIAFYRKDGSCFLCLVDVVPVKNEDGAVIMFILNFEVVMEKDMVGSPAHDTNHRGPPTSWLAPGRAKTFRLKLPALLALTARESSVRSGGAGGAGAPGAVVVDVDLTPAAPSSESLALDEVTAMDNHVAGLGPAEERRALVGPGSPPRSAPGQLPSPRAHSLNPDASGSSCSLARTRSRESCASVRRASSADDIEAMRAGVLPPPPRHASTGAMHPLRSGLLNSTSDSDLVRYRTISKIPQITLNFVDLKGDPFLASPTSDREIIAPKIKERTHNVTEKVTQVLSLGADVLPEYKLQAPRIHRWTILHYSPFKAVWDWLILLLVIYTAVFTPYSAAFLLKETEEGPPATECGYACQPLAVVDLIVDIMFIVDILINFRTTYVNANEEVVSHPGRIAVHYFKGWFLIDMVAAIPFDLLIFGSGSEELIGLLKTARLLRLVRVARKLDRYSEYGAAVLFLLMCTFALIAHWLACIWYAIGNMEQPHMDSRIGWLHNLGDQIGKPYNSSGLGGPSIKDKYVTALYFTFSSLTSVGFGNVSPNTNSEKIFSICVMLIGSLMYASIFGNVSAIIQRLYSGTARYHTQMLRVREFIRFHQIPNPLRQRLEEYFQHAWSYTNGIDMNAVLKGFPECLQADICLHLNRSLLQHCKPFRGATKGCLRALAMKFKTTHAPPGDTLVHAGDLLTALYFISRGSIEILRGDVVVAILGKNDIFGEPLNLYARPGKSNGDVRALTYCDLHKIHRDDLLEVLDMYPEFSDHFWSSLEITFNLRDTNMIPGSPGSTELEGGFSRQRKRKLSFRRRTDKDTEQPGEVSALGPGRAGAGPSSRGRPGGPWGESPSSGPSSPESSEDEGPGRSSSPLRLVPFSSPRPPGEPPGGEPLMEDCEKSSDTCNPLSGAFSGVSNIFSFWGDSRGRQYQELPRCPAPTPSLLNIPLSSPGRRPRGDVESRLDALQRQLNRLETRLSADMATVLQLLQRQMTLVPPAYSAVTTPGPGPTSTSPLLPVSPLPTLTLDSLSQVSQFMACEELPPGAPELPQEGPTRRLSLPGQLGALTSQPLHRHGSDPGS
Kv1.4, sequence (P22459 whole entry): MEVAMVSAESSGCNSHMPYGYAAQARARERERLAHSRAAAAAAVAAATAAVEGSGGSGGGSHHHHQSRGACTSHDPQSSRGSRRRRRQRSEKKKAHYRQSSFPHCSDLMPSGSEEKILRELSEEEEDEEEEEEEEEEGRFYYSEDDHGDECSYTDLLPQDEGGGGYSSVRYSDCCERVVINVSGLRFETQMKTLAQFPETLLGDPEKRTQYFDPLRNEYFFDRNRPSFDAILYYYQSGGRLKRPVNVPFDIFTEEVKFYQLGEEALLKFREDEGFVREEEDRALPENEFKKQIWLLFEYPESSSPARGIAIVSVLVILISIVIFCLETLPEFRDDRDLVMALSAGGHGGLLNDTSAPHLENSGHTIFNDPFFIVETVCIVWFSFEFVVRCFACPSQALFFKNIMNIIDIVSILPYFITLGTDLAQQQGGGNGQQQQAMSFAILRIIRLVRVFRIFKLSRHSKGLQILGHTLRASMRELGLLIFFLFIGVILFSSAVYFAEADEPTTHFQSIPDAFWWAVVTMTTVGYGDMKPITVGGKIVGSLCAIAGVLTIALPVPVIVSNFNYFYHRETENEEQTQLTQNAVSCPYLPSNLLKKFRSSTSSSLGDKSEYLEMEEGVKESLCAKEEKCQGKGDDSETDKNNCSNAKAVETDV

CC[C@H](C)[C@@H]1NC(=O)[C@H](CCCCN)NC(=O)CNC(=O)[C@H](CCCNC(=N)N)NC(=O)[C@@H]2CSSC[C@H](NC(=O)CNC(=O)[C@H](Cc3ccccc3)NC(=O)CN)C(=O)N3CCC[C@H]3C(=O)N[C@@H](Cc3c[nH]c4ccccc34)C(=O)N[C@@H](CC(N)=O)C(=O)N[C@@H](C)C(=O)N[C@@H](Cc3ccc(O)cc3)C(=O)N[C@@H](CCC(=O)O)C(=O)N[C@H]3CSSC[C@H](NC(=O)[C@H]([C@@H](C)O)NC(=O)[C@H](CCC(N)=O)NC(=O)[C@H](CCCNC(=N)N)NC1=O)C(=O)N[C@@H](Cc1c[nH]cn1)C(=O)N[C@H](C(=O)N[C@@H](Cc1ccc(O)cc1)C(=O)O)CSSC[C@H](NC(=O)[C@H](Cc1c[nH]cn1)NC(=O)[C@H](CCCNC(=N)N)NC(=O)[C@H](CC(=O)O)NC3=O)C(=O)N[C@@H](C(C)C)C(=O)N[C@@H](CO)C(=O)N[C@@H](CCCCN)C(=O)NCC(=O)N[C@@H](Cc1ccc(O)cc1)C(=O)N[C@@H]([C@@H](C)O)C(=O)NCC(=O)NCC(=O)N[C@@H](CC(N)=O)C(=O)N2 [AMSIN] (H-GFGCPWNAYECDRHCVSKGYTGGNCRGKIRQTCHCY-OH; disulfide 4-25, 11-33, 15-35; N-terminus and C-terminus assumed)
Kd [1]: 24 µM
Survival after peritoneal infection with MRSA P1374 (MRSA P1374; 1 × 10^8 CFU i.p., AMSIN i.v. 1 h post‐infection 20 mg per kg, then 10 mg per kg once daily, six mice, 7‐day study period): all survived; also recorded: survived the 7‐day study period
Toxicity of administration route in the model (MRSA P1374; intravenous injection (i.v.)): no obvious toxicity
Duration of continued survival (MRSA P1374; same six treated mice, observation period): > 30 days
Effect on channel current (Kv4.3): no any effect
Effect on channel current (hERG): no any effect
Effect on channel current (Kv2.1): no any effect
Effect on channel current (Kv1.4): no any effect
Effect on channel current (Nav1.5): no any effect
Effect on channel current (Kv1.5): no any effect
Log10 (CFU per lung) (SP D39; 8.35 mg/kg i.m. 24 h after intranasal SP D39, lungs at 48 h post‐infection, animal 1): 3.3 Log10 (CFU per lung)
Log10 (CFU per lung) (SP D39; 8.35 mg/kg i.m., animal 2): 3.48 Log10 (CFU per lung)
Log10 (CFU per lung) (SP D39; 8.35 mg/kg i.m., animal 3): 3.3 Log10 (CFU per lung)
Log10 (CFU per lung) (SP D39; 8.35 mg/kg i.m., animal 4): 3 Log10 (CFU per lung)
Log10 (CFU per lung) (SP D39; 8.35 mg/kg i.m., animal 5): 3.78 Log10 (CFU per lung)
Log10 (CFU per lung) (SP D39; 16.7 mg/kg i.m., animal 1): 3.89 Log10 (CFU per lung)
Log10 (CFU per lung) (SP D39; 16.7 mg/kg i.m., animal 2): 1.48 Log10 (CFU per lung)
Log10 (CFU per lung) (SP D39; 16.7 mg/kg i.m., animal 3): 1 Log10 (CFU per lung)
Log10 (CFU per lung) (SP D39; 16.7 mg/kg i.m., animal 4): 4.2 Log10 (CFU per lung)
Log10 (CFU per lung) (SP D39; 16.7 mg/kg i.m., animal 5): 1.6 Log10 (CFU per lung)
Log10 (CFU per lung) (SP D39; 33 mg/kg i.m., animal 1): 1 Log10 (CFU per lung)
Log10 (CFU per lung) (SP D39; 33 mg/kg i.m., animal 2): 1.3 Log10 (CFU per lung)
Log10 (CFU per lung) (SP D39; 33 mg/kg i.m., animal 3): 1 Log10 (CFU per lung)
Log10 (CFU per lung) (SP D39; 33 mg/kg i.m., animal 4): 1.3 Log10 (CFU per lung)
Log10 (CFU per lung) (SP D39; 33 mg/kg i.m., animal 5): 1.48 Log10 (CFU per lung)
Reduction of CFU in lungs (SP D39; different doses (8.35, 16.7, 33 mg per kg i.m.)): 4.6–6.7 log10
Toxicity of administration route in the model (SP D39; intramuscular injection (i.m.)): no obvious toxicity
Viability of HEK 293 (HEK 293): did not affect the viability
